Patent US10633350B2, “Diphenyl derivatives and uses thereof” (NOVARTIS AG, priority 2017, dated 2020)

What follows are molecules tested on FoxO3a (assay: FoxO3a inhibition assay (GFP-FoxO3a nuclear to cytoplasmic translocation) in U2OS GFP-FoxO3a H212R reporter cells). Settings: Homo sapiens, 0.5 h, serum starved overnight, 30 minutes compound treatment, ratio of nuclear to cytosolic GFP intensity, AC50 = concentration that results in 50% activation or inhibition, read-out: FoxO AC50.
Format: cell-based
Protocol: Phosphorylation of Akt on S473 and FoxO3a nuclear to cytoplasmic translocation were used as readouts of PI3K/Akt/mTOR pathway activation downstream of growth factor signaling.
Reporter cell line. U2OS GFP-FoxO3a H212R reporter cell line was established by transducing U2OS cells with the retroviral plasmid pLEGFP-C1 containing FoxO3a H212R transgene and selecting for G418 resistant clones.
Reporter assay. U2OS GFP-FoxO3a H212R cells were plated in 384-well plates at 4000 cells per well in 30 microliters of McCoy's 5A medium containing 10% FBS. On day 1 the cells were washed with serum free medium and serum starved overnight. On day 2 the cells were treated with different doses of the compounds for 30 minutes, fixed with 4% Paraformaldehyde for 1 hour and stained with Phospho-AKT (Ser473) antibody (Cell Signaling Technology, catalog #4060) overnight at 4° C. After nuclei staining with Hoechst 33342 (Life Technologies, catalog # H3570) the plates were imaged with InCell 2000 (GE Healthcare Bio-Sciences). FoxO3a inhibition activity is calculated as the ratio of nuclear to cytosolic GFP intensity in percent. Akt activation is measured as the total cellular intensity of Phospho-Akt antibody staining in percent. DMSO control is set as 0% activity.

Structure (SMILES)	AC50
Cc1nnc(-c2cccc(-c3ccc(Cc4ccc(-n5nc(C(N)=O)cc5C)cc4)cc3)c2)o1 [Example 3-7, 5-methyl-1-(4-((3′-(5-methyl-1,3,4-oxadiazol-2-yl)-[1,1′-biphenyl]-4-yl)methyl)phenyl)-1H-pyrazole-3-carboxamide]	499 nM
Cc1cc(C(N)=O)nn1-c1ccc(Cc2ccc(-c3ccc(C(=O)N4CCNCC4)cn3)cc2)cc1 [Example 27, 5-methyl-1-(4-(4-(5-(piperazine-1-carbonyl)pyridin-2-yl)benzyl)phenyl)-1H-pyrazole-3-carboxamide]	213 nM
Cc1cc(C(N)=O)nn1-c1ccc(Cc2ccc(-c3ccc(CN4CCN(C5COC5)CC4)cn3)cc2)cc1 [Example 33, 5-methyl-1-(4-(4-(5-((4-(oxetan-3-yl)piperazin-1-yl)methyl)pyridin-2-yl)benzyl)phenyl)-1H-pyrazole-3-carboxamide]	138 nM
Cc1nc(C(N)=O)nn1-c1ccc(Cc2ccc(-c3ccc(CN4CCN[C@@H](C)C4)nc3)cc2)cc1 [Example 36, (S)-5-methyl-1-(4-(4-(6-((3-methylpiperazin-1-yl)methyl)pyridin-3-yl)benzyl)phenyl)-1H-1,2,4-triazole-3-carboxamide]	183 nM
Cc1nc(C(N)=O)nn1-c1ccc(Cc2ccc(-c3ccc(CN4CCC5(COC5)C4)cc3)cc2)cc1 [Example 38-1, 1-(4-((4′-((2-oxa-6-azaspiro[3.4]octan-6-yl)methyl)-[1,1′-biphenyl]-4-yl)methyl)phenyl)-5-methyl-1H-1,2,4-triazole-3-carboxamide]	2 nM
Cc1nc(C(N)=O)nn1-c1ccc(Cc2ccc(-c3ccc(CN4C[C@H]5CN(C)C[C@H]5C4)cc3)cc2)cc1 [Example 38-3]	35 nM
Cc1nc(C(N)=O)nn1-c1ccc(Cc2ccc(-c3ccc(CN4CCCC5(COC5)C4)cc3)cc2)cc1 [Example 38-6]	74 nM
Cc1nc(C(N)=O)nn1-c1ccc(Cc2ccc(-c3ccc(CN4CCC(N(C)C)CC4)cc3)cc2)cc1 [Example 39-2]	5 nM
Cc1nc(C(N)=O)nn1-c1ccc(Cc2ccc(-c3ccc(CN4CCCC(C(C)(C)O)C4)cc3)cc2)cc1 (centres unmarked) [Example 39-7]	29 nM
Cc1nc(C(N)=O)nn1-c1ccc(Cc2ccc(-c3ccc(CN4CC(O)C4)cc3)cc2)cc1 [Example 39-8]	864 nM
Cc1nc(C(N)=O)nn1-c1ccc(Cc2ccc(-c3ccc(CN4C[C@@H](C)N[C@H](C)C4)cc3)cc2)cc1 [Example 39-9]	123 nM
Cc1nc(C(N)=O)nn1-c1ccc(Cc2ccc(-c3ccc(CN4CCC(C)(O)C4)cc3)cc2)cc1 (centres unmarked) [Example 39-10]	13 nM
Cc1nc(C(N)=O)nn1-c1ccc(Cc2ccc(-c3ccc(CN4CC5(CCCO5)C4)cc3)cc2)cc1 [Example 39-11]	241 nM
Cc1nc(C(N)=O)nn1-c1ccc(Cc2ccc(-c3ccc(CN4CCN[C@@H](CO)C4)cc3)cc2)cc1 [Example 39-12]	181 nM
Cc1nc(C(N)=O)nn1-c1ccc(Cc2ccc(-c3ccc(CN4CC[C@@H](F)C4)cc3)cc2)cc1 [Example 39-13]	79 nM
Cc1nc(C(N)=O)nn1-c1ccc(Cc2ccc(-c3ccc(CN4CCC(S(C)(=O)=O)C4)cc3)cc2)cc1 (centres unmarked) [Example 39-14]	54 nM
Cc1nc(C(N)=O)nn1-c1ccc(Cc2ccc(-c3ccc(CN4CCC5CN(C)CC54)cc3)cc2)cc1 (centres unmarked) [Example 39-15]	5 nM
Cc1nc(C(N)=O)nn1-c1ccc(Cc2ccc(-c3ccc(CN4CCCC(C)(O)C4)cc3)cc2)cc1 (centres unmarked) [Example 39-16]	56 nM
Cc1nc(C(N)=O)nn1-c1ccc(Cc2ccc(-c3ccc(CN4CCN(C(C)(C)C)CC4)cc3)cc2)cc1 [Example 39-17]	85 nM
Cc1nc(C(N)=O)nn1-c1ccc(Cc2ccc(-c3ccc(CN4CCNC(C)(C)C4)cc3)cc2)cc1 [Example 39-18]	81 nM
Cc1nc(C(N)=O)nn1-c1ccc(Cc2ccc(-c3ccc(CN4C[C@@H](C)N[C@@H](C)C4)cc3)cc2)cc1 [Example 39-19]	65 nM
Cc1nc(C(N)=O)nn1-c1ccc(Cc2ccc(-c3ccc(CN4CCC(F)(F)CC4)cc3)cc2)cc1 [Example 39-20]	140 nM
Cc1nc(C(N)=O)nn1-c1ccc(Cc2ccc(-c3ccc(CN4CCN5CCCCC5C4)cc3)cc2)cc1 (centres unmarked) [Example 39-21]	60 nM
Cc1nc(C(N)=O)nn1-c1ccc(Cc2ccc(-c3ccc(CN4CCCC[C@H]4CO)cc3)cc2)cc1 [Example 39-22]	98 nM

Structure (SMILES)	AC50
Cc1nc(C(N)=O)nn1-c1ccc(Cc2ccc(-c3ccc(CN4CCC(CO)CC4)cc3)cc2)cc1 [Example 39-23]	18 nM
Cc1nc(C(N)=O)nn1-c1ccc(Cc2ccc(-c3ccc(CN4CC(C)(O)C4)cc3)cc2)cc1 [Example 39-24]	406 nM
Cc1nc(C(N)=O)nn1-c1ccc(Cc2ccc(-c3ccc(CN4CCC(O)CC4)cc3)cc2)cc1 [Example 39-25]	105 nM
Cc1nc(C(N)=O)nn1-c1ccc(Cc2ccc(-c3ccc(CN4C[C@H]5COC[C@H]5C4)cc3)cc2)cc1 [Example 39-26]	31 nM
Cc1nc(C(N)=O)nn1-c1ccc(Cc2ccc(-c3ccc(CN4CCCC(F)C4)cc3)cc2)cc1 (centres unmarked) [Example 39-27]	46 nM
Cc1nc(C(N)=O)nn1-c1ccc(Cc2ccc(-c3ccc(CN4CCCN(C)CC4)cc3)cc2)cc1 [Example 39-28]	39 nM
Cc1nc(C(N)=O)nn1-c1ccc(Cc2ccc(-c3ccc(CN4C[C@H](O)[C@@H](O)C4)cc3)cc2)cc1 [Example 39-29]	180 nM
Cc1nc(C(N)=O)nn1-c1ccc(Cc2ccc(-c3ccc(CN4C[C@H]5CCN(C)[C@H]5C4)cc3)cc2)cc1 [Example 39-30]	32 nM
Cc1nc(C(N)=O)nn1-c1ccc(Cc2ccc(-c3ccc(CN4CCC(S(C)(=O)=O)CC4)cc3)cc2)cc1 [Example 39-31]	49 nM
Cc1nc(C(N)=O)nn1-c1ccc(Cc2ccc(-c3ccc(CN4CC(F)(F)C4)cc3)cc2)cc1 [Example 39-33]	42 nM
Cc1nc(C(N)=O)nn1-c1ccc(Cc2ccc(-c3ccc(CN4C[C@@H]5[C@@H](CO)[C@@H]5C4)cc3)cc2)cc1 [Example 39-34]	10 nM
Cc1nc(C(N)=O)nn1-c1ccc(Cc2ccc(-c3ccc(CN4CCC(C(F)(F)F)CC4)cc3)cc2)cc1 [Example 39-35]	145 nM
Cc1nc(C(N)=O)nn1-c1ccc(Cc2ccc(-c3ccc(CN4CC(CO)C4)cc3)cc2)cc1 [Example 39-36]	164 nM
Cc1cc(C(N)=O)nn1-c1ccc(Cc2ccc(C34CCC(C(=O)N5CCNCC5)(CC3)CC4)cc2)cc1 [Example 42, 5-methyl-1-(4-(4-(4-(piperazine-1-carbonyl)bicyclo[2.2.2]octan-1-yl)benzyl)phenyl)-1H-pyrazole-3-carboxamide]	55 nM
Cc1cc(C(N)=O)nn1-c1ccc(Cc2ccc(C34CCC(C(=O)N5CCN(C)CC5)(CC3)CC4)cc2)cc1 [Example 43, 5-methyl-1-(4-(4-(4-(4-methylpiperazine-1-carbonyl)bicyclo[2.2.2]octan-1-yl)benzyl)phenyl)-1H-pyrazole-3-carboxamide]	17 nM
Cc1nc(C(N)=O)nn1-c1ccc(Cc2ccc(C3CC4(CC(C(=O)N5CCNCC5)C4)C3)cc2)cc1 (centres unmarked) [Example 44, 5-methyl-1-(4-(4-(6-(piperazine-1-carbonyl)spiro[3.3]heptan-2-yl)benzyl)phenyl)-1H-1,2,4-triazole-3-carboxamide]	134 nM
Cc1cc(C(N)=O)nn1-c1ccc(Cc2ccc(-c3ccc(C(C)(C)CO)cn3)cc2)cc1 [Example 57, 1-(4-(4-(5-(1-hydroxy-2-methylpropan-2-yl)pyridin-2-yl)benzyl)phenyl)-5-methyl-1H-pyrazole-3-carboxamide]	49 nM
Cc1cc(C(N)=O)nn1-c1ccc(Cc2ccc(-c3ccc(C(C)(C)O)nn3)cc2)cc1 [Example 58, 1-(4-(4-(6-(2-hydroxypropan-2-yl)pyridazin-3-yl)benzyl)phenyl)-5-methyl-1H-pyrazole-3-carboxamide]	225 nM
Cc1cc(C(N)=O)nn1-c1ccc(Cc2ccc(-c3ccc(C(=O)NCC(C)(C)O)cn3)cc2)cc1 [Example 59, 6-(4-(4-(3-carbamoyl-5-methyl-1H-pyrazol-1-yl)benzyl)phenyl)-N-(2-hydroxy-2-methylpropyl)nicotinamide]	58 nM
Cc1cc(C(N)=O)nn1-c1ccc(Cc2ccc(-c3cnc(C(C)(C)O)nc3)cc2)cc1 [Example 60, 1-(4-(4-(2-(2-hydroxypropan-2-yl)pyrimidin-5-yl)benzyl)phenyl)-5-methyl-1H-pyrazole-3-carboxamide]	83 nM
Cc1cc(C(N)=O)nn1-c1ccc(Cc2ccc(-c3ccnc(CO)c3)cc2)cc1 [Example 61, 1-(4-(4-(2-(hydroxymethyl)pyridin-4-yl)benzyl)phenyl)-5-methyl-1H-pyrazole-3-carboxamide]	187 nM
Cc1nc(C(N)=O)nn1-c1ccc(Cc2ccc(-c3ccc(O[C@H]4CCN(C)C4)cc3)cc2)cc1 [Example 62, (S)-5-methyl-1-(4-((4′-((1-methylpyrrolidin-3-yl)oxy)-[1,1′-biphenyl]-4-yl)methyl)phenyl)-1H-1,2,4-triazole-3-carboxamide]	20 nM
Cc1nc(C(N)=O)nn1-c1ccc(Cc2ccc(-c3ccc(O[C@@H]4CCN(C)C4)cc3)cc2)cc1 [Example 63, (R)-5-methyl-1-(4-((4′-((1-methylpyrrolidin-3-yl)oxy)-[1,1′-biphenyl]-4-yl)methyl)phenyl)-1H-1,2,4-triazole-3-carboxamide]	11 nM
